# According to US5180672A, “Ascorbate oxidase isolated from Acremonium sp. HI-25 ferm BP-3124” (Asahi Kasei Kogyo Kabushiki Kaisha, priority 1990, dated 1993):
# Read-outs that look alike come from different tables or passages of the source.
# How the values were obtained:
# [1] = system: ascorbate oxidase produced by Acremonium sp. HI-25; format: biochemical; settings: for residual relative activities (%): 10 min, 1000 µM
# [2] = target: T1, ascorbate oxidase from cucumber (Toyobo ASCORBATE OXIDASE, EC 1.10.3.3) (Cucumis sativus, UniProt P14133); settings: reference J. Biochem. 64, 189 (1968); Toyobo catalog; read-out: K m (L-ascorbate); cited from earlier work
# T1 sequence (P14133 34-587): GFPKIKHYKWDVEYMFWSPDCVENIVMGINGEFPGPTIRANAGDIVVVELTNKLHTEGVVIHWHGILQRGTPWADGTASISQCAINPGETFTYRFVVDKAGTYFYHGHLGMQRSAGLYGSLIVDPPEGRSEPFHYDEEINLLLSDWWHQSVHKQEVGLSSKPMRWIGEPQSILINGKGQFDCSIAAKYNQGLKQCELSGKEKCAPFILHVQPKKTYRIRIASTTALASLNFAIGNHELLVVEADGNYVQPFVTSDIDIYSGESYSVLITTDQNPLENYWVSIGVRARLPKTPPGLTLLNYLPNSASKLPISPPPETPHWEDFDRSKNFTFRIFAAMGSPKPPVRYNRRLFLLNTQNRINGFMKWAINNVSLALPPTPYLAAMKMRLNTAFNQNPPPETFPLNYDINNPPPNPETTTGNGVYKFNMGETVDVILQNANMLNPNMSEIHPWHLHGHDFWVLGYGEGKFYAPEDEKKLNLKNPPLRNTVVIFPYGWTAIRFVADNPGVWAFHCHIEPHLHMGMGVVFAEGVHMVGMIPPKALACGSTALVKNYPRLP
# [3] = system: ascorbate oxidase from Myrothecium verrucaria, hypha; settings: at 1 mM; printed as effective (50% at 1 mM); cited from earlier work
# [4] = system: ascorbate oxidase from Acremonium sp. HI-25; settings: NaN3 0.2%, 2880 min
smiles,measurement,setting,value
O=C(O)CN(CCN(CC(=O)O)CC(=O)O)CC(=O)O [EDTA],residual relative activities (%),[1],106%
O=C1O[C@H]([C@@H](O)CO)C(O)=C1O [L-ascorbate],Km,[2],250 µM
"[Na+].[Na+].[S-2] [Na2 S, sodium sulfide]",residual relative activities (%),[1],3%
"CCN(CC)C(=S)[S-].[Na+] [sodium N,N-diethyldithiocarbamate]",residual relative activities (%),[1],101%
same,inhibition by inhibitor,[3],50%
[N-]=[N+]=[N-] [sodium azide],inactivation by inhibitor (in words),[1],inactivated
same,"relative activities, 100 as buffers only",[4]; PIPES buffer with 0.1 % BSA,78.4%
same,"relative activities, 100 as buffers only",[4]; Pi buffer with 0.1 % BSA,76.2%
same,"relative activities, 100 as buffers only",[4]; Tris buffer with 0.1 % BSA,78.6%
